Here are results for 11 molecules from EP4553080A1, “NUCLEOSIDE DERIVATIVES AS ANTIVIRAL AGENTS AGAINST CORONAVIRUSES” (Ustav Organicke Chemie a Biochemie AV CR, v.v.i., priority 2023, dated 2025).

The IC50 is the point on the concentration scale where inhibition reaches its midpoint.

This assay deals with nsp14 methyltransferase from SARS-CoV-2 (Severe acute respiratory syndrome coronavirus 2, UniProt P0DTD1). Kind of assay: Nsp14 MTase activity inhibition in vitro (EchoMS assay). Type of assay: biochemical. Conditions: recombinant nsp14 protein expressed in E. coli; dose-response curve.

As for `Cc1noc(-c2ccccc2)c1CSC[C@H]1O[C@@H](n2cc(-c3ccnn3C)c3c(N)ncnc32)[C@H](O)[C@@H]1O` [Compound 154], the IC50 was in the range of 30 to 100 nM.

Turning to `Cc1noc(-c2ccccc2)c1CSC[C@H]1O[C@@H](n2cc(-c3cncn3C)c3c(N)ncnc32)[C@H](O)[C@@H]1O` [Compound 155, (2R,3R,4S,5S)-2-(4-Amino-5-(1-methyl-1H-imidazol-5-yl)-7H-pyrrolo[2,3-d]pyrimidin-7-yl)-5-((((3-methyl-5-phenylisoxazol-4-yl)methyl)thio)methyl)tetrahydrofuran-3,4-diol], the IC50 was in the range of 30 to 100 nM.

As to `Cc1ncc(-c2cn([C@@H]3O[C@H](CSCc4c(C)noc4-c4ccccc4)[C@@H](O)[C@H]3O)c3ncnc(N)c23)s1` [Compound 156, (2R,3R,4S,5S)-2-(4-Amino-5-(2-methylthiazol-5-yl)-7H-pyrrolo[2,3-d]pyrimidin-7-yl)-5-((((3-methyl-5-phenylisoxazol-4-yl)methyl)thio)methyl)tetrahydrofuran-3,4-diol], the IC50 was in the range of 10 to 30 nM.

On to `Cc1noc(-c2ccccc2)c1CSC[C@H]1O[C@@H](n2cc(-c3ccc(N)cc3)c3c(N)ncnc32)[C@H](O)[C@@H]1O` [Compound 157], for which the IC50 is 30 to 100 nM.

Consider `Cc1noc(-c2ccccc2)c1CSC[C@H]1O[C@@H](n2cc(C#Cc3ccc(C(N)=O)cc3)c3c(N)ncnc32)[C@H](O)[C@@H]1O` [Compound 169b, 4-((4-Amino-7-((2R,3R,4S,5S)-3,4-dihydroxy-5-((((3-methyl-5-phenylisoxazol-4-yl)methyl)thio)methyl)tetrahydrofuran-2-yl)-7H-pyrrolo[2,3-d]pyrimidin-5-yl)ethynyl)benzamide], for which the IC50 lay in the range of 30 to 100 nM.

As to `Cc1noc(-c2ccccc2)c1CSC[C@H]1O[C@@H](n2cc(C#Cc3cccnc3)c3c(N)ncnc32)[C@H](O)[C@@H]1O` [Compound 170b, (2R,3R,4S,5S)-2-(4-Amino-5-(pyridin-3-ylethynyl)-7H-pyrrolo[2,3-d]pyrimidin-7-yl)-5-((((3-methyl-5-phenylisoxazol-4-yl)methyl)thio)methyl)tetrahydrofuran-3,4-diol], the IC50 was 10 to 30 nM.

Regarding `Cc1noc(-c2ccccc2)c1CSC[C@H]1O[C@@H](n2cc(C#Cc3ccccn3)c3c(N)ncnc32)[C@H](O)[C@@H]1O` [Compound 171b, (2R,3R,4S,5S)-2-(4-Amino-5-(pyridin-2-ylethynyl)-7H-pyrrolo[2,3-d]pyrimidin-7-yl)-5-((((3-methyl-5-phenylisoxazol-4-yl)methyl)thio)methyl)tetrahydrofuran-3,4-diol], the IC50 fell in the range of 10 to 30 nM.

`Cc1noc(-c2ccccc2)c1CSC[C@H]1O[C@@H](n2cc(C#Cc3cncnc3)c3c(N)ncnc32)[C@H](O)[C@@H]1O` [Compound 172b]: the IC50 is 10 to 30 nM.

Take `Cc1noc(-c2ccccc2)c1CSC[C@H]1O[C@@H](n2cc(C#Cc3ccnnc3)c3c(N)ncnc32)[C@H](O)[C@@H]1O` [Compound 173b]: the IC50 was in the range of 10 to 30 nM.

As to `Cc1noc(-c2ccccc2)c1CSC[C@H]1O[C@@H](n2cc(C#Cc3cnc(N)nc3)c3c(N)ncnc32)[C@H](O)[C@@H]1O` [Compound 174b, (2R,3R,4S,5S)-2-(4-Amino-5-((2-aminopyrimidin-5-yl)ethynyl)-7H-pyrrolo[2,3-d]pyrimidin-7-yl)-5-((((3-methyl-5-phenylisoxazol-4-yl)methyl)thio)methyl)tetrahydrofuran-3,4-diol], the IC50 lay within 30 to 100 nM.

As to `Cc1noc(-c2ccccc2)c1CSC[C@H]1O[C@@H](n2cc(C#Cc3cccc4ccccc34)c3c(N)ncnc32)[C@H](O)[C@@H]1O` [Compound 175b, (2R,3R,4S,5S)-2-(4-Amino-5-(naphthalen-1-ylethynyl)-7H-pyrrolo[2,3-d]pyrimidin-7-yl)-5-((((3-methyl-5-phenylisoxazol-4-yl)methyl)thio)methyl)tetrahydrofuran-3,4-diol], the IC50 was in the range of 500 to 2000 nM.
